73 molecules from ChEMBL document CHEMBL3507680, “University of Dundee, Gates Library screen for HepG2 cell viability” can be followed below.

A short description of the data set: Human HepG2 cell viability assay in 384 well format. Further details: dose 125 nL, time 70.5 hour; concentration not given beside the values. Format: toxicity, cell-based. To be noted: HepG2 cells, read-out: Inhibition.
For the molecule `COc1ccc2ccccc2c1CNCC1CCS(=O)(=O)C1` (stereo not drawn), the cytotoxicity at 70.5 h is -8.26%.
Turning to `CCNC(=O)Nc1cccc(F)c1C(=O)NC1CCCC1`, the cytotoxicity at 70.5 h was -6.92%.
Under `NCC1(c2cccc(C(F)(F)F)c2)CC1` stands 13.4%; under `CC(C)n1[nH]c(=O)c2c1NC(=O)CC2c1ccncc1` (stereo not drawn), -11.3%.
Under `COCC1COCCC12CCN(C(=O)COc1ccccc1)CC2` (stereo not drawn) stands -14.3%; under `CCC(CNC(=O)CCn1cncn1)N1CCc2ccccc2C1` (stereo not drawn), 7.08%.
Consider `CC(C)n1ccnc1CN1CCCN(C(=O)c2cccnc2O)CC1`, for which the cytotoxicity at 70.5 h came out at 23.5%.
For the molecule `Cc1ccc(C(C)NC(=O)Cc2c(C)nc3cc(=O)[nH]n3c2C)s1` (stereo not drawn), the cytotoxicity at 70.5 h was -10.8%.
Regarding `CCn1cc2c(n1)CN(CC1CC1)CC2COCC1CC1` (stereo not drawn), the cytotoxicity at 70.5 h was -15%.
Next, `Cc1cnn(CC2CN(c3ncnc4ccsc34)CCO2)c1` (stereo not drawn): 16%; `CCc1nc2n(n1)CC(NCc1nc(-c3ccccn3)no1)CC2` (stereo not drawn): -3.45%; `CN(C)[C@@H]1CO[C@H](CNC(=O)CC(C)(C)C)[C@H]1O`: -0.485%.
For the molecule `O=C(NCC1CC1)C1CN(C(=O)c2cccc(Cl)c2)CC12CCOCC2` (stereo not drawn), the cytotoxicity at 70.5 h amounted to 38.6%.
Next, `COc1cc(CCC(=O)NC(C)C(=O)O)ccc1OCC(F)(F)F` (stereo not drawn): -13%; `Cc1cccnc1NC(=O)C1CSc2ncc(C)c(=O)n2C1` (stereo not drawn): -2.04%.
Next, `CC1CCN(CCCNC(=O)C2CCCCC2)CC1`: -5.79%; `CCC(C)S(=O)(=O)N(Cc1ccco1)Cc1ccccc1O` (stereo not drawn): -10.4%; `CS(=O)(=O)Nc1cnn(Cc2cccc(Cl)c2)c1`: -7.33%.
Under `CCCNC(=O)CCC(=O)n1nc(C)c2ccccc21` stands 1.02%; under `Cc1cc(N2CCc3c(ncn3C)C2)n2nc(C(F)(F)F)nc2n1`, -105%; under `CC(=O)NC1CCCN(c2nc3ccccc3cc2CO)C1` (stereo not drawn), 2.9%.
Consider `O=C(CCNC(=O)c1ccccc1N1CCOCC1)NC1CCCC1`, for which the cytotoxicity at 70.5 h is -1.96%.
Next, `CCOC(=O)C1(Cc2ccccc2)CCCN(Cc2nccn2CC)C1` (stereo not drawn): -0.0866%; `NC(=O)C1CCN(Cc2ccc(S(=O)(=O)N3CCCC3)o2)CC1`: -3.5%.
Consider `Cc1nc(CC(=O)NCCN2CCC(c3ccccc3C)C2)cs1` (stereo not drawn), for which the cytotoxicity at 70.5 h was -8.35%.
Next, `CCC(C)C(=O)NCc1ccn(-c2ccc(F)cc2)n1` (stereo not drawn): 8.14%; `Cc1nc(NC(=O)C2CCCN(C(=O)C3CC3)C2)sc1C` (stereo not drawn): -14.8%.
For `Brc1cccc(-c2noc(CN3CCOCC3)n2)c1`, the cytotoxicity at 70.5 h was -2.61%.
Under `Cc1noc(C)c1CN1C[C@@H]2CC[C@H](C1)N(Cc1cc(F)cc(F)c1)C2` stands -14.1%.
Next, `CCCNC(=O)CSc1nnc2[nH]c(=O)c3c(n12)CCCC3`: 12.2%.
Next, `Cc1ncccc1Oc1nccnc1C1CCN(C(C)C)CC1`: -2.72%.
Take `COc1ccc(C(=O)NC2CC2)c(OC2CCN(CCCSC)CC2)c1`: the cytotoxicity at 70.5 h was -1.03%.
Take `O=C1CC(c2ccsc2)c2c(n(C3CCOCC3)[nH]c2=O)N1` (stereo not drawn): the cytotoxicity at 70.5 h amounted to 14.8%.
Next, `Cc1cccc(-c2nnc(C(C)N3CCn4c(C)nnc4C3)o2)c1` (stereo not drawn): -12.4%; `COc1cc(C2CC(=O)Nc3c2c(=O)[nH]n3C2CCCCC2)ccc1O` (stereo not drawn): -12.4%; `CC(C)(C)OC(=O)N1CCCN(Cc2ccon2)c2ccccc21`: 9.4%.
Under `COCCOCC(=O)NC(C#N)c1c(F)cccc1Cl` (stereo not drawn) stands 20.7%; under `O=C(CCCc1ccccn1)N1CCCC(n2cccn2)C1` (stereo not drawn), -3.36%; under `c1cc(-c2ccc3c(c2)C2(CC3)CCN(c3nncs3)CC2)ccn1`, 1.28%.
Next, `Cc1ccc2c(c1)C1(CCNCC1)CC2NC1CC1` (stereo not drawn): 2.66%.
As to `CC(C)c1noc(OCc2cccc(C#N)c2)n1`, the cytotoxicity at 70.5 h is -11.8%.
As for `Cc1nc(CO[C@H]2CN(C(=O)c3cnoc3C)[C@@H]3COC[C@H]23)cs1`, the cytotoxicity at 70.5 h was -3.09%.
Next, `COCCOc1ccc(CNC2CCc3ncnn3C2)cc1OC` (stereo not drawn): -9.82%; `COc1cccc(CN2CCCCC2CN2CCOCC2)c1F` (stereo not drawn): -2.15%; `CC(C)COCC(NC(=O)c1cnccn1)c1ccco1` (stereo not drawn): -10.5%.
Under `Cc1cccn2c(CC(=O)N3CCC(CCn4cccn4)CC3)cnc12` stands 13.1%; under `O=C(NCC(O)COc1cccc(F)c1)c1ccoc1` (stereo not drawn), -13.2%; under `COc1ccc(OC)c(Sc2ncccc2C(=O)NCC2CC2)c1`, 24.9%.
For `Cn1ccnc1C1CCCN(C(=O)c2cc(F)cc(F)c2)C1` (stereo not drawn), the cytotoxicity at 70.5 h is -6.29%.
Under `Cc1cc(C)c(CNC(=O)NCC(O)c2ccc(Cl)cc2)c(=O)[nH]1` (stereo not drawn) stands -4.37%.
Next, `CC1CCCCN1c1nc2c(c(=O)[nH]1)CCN(Cc1cccnc1)C2` (stereo not drawn): -3.39%; `CCc1c(C)nn(CCNC(=O)Cc2csc(C)n2)c1C`: -6.58%.
Under `Cc1cnn(CC2CN(Cc3cccc(OC(C)C)c3)CCO2)c1` (stereo not drawn) stands -5.62%; under `O=C(NCc1cccnc1OCC(F)(F)F)N1CCOCC1`, 7.44%.
In the case of `Cc1ccc(CN2CCN(C(=O)CCc3nc(Cl)n[nH]3)CC2=O)cc1`, the cytotoxicity at 70.5 h was -14.2%.
Next, `CC(=O)c1ccc(C(=O)NCc2ccnc(N(C)C)n2)cc1`: 5.65%; `COc1cccc(CN2CCC(CO)(Cc3ccc(Cl)cc3)CC2)c1O`: -5.98%.
For `CC1CCCN(C(=O)c2csc(S(N)(=O)=O)c2)CC1` (stereo not drawn), the cytotoxicity at 70.5 h is -1.03%.
Under `Cc1cccc(CN2C(=O)CCC23CCN(C(=O)c2ccco2)CC3)c1` stands -10.9%.
Next, `NC(=O)NCCC(=O)NCc1nn(-c2ccccc2)c2c1CCC2`: -16.4%; `CCc1nc(C2CCCN(C(=O)c3ccccc3O)C2)no1` (stereo not drawn): 3.74%.
Under `CN(Cc1cc2n(n1)CCCNC2)Cc1cc(-c2ccncc2)no1` stands -5.61%.
As to `CC1CCc2nn(CCNC(=O)C3CCCC3)c(=O)cc2C1` (stereo not drawn), the cytotoxicity at 70.5 h was -3.14%.
Under `O=C(NCC1CCCCO1)c1ccc(-c2cccs2)[nH]c1=O` (stereo not drawn) stands -0.0205%; under `CN(C)CCCn1ccc(-c2cccc(-c3cncnc3)c2)n1`, -9.25%.
Next, `CCOCC1CCN(C(=O)C(c2ccccc2F)N(C)C)CC1` (stereo not drawn): -8.49%; `CCOC(=O)N1CCc2ccccc2C12CCNCC2`: -2.47%; `O=C(c1cc(-c2ccco2)nc2c(Cl)cccc12)N1C[C@H]2CNC[C@H]2C1`: -6.09%.
As for `Cc1nnc(NC(=O)NCc2ccc(C)n2C)s1`, the cytotoxicity at 70.5 h amounted to 13.4%.
`c1ccc(CN2CCc3ncnc(C4CC4)c3CC2)cc1`: the cytotoxicity at 70.5 h is 26.7%.
Under `O=C(NCCc1nnc2n1CCC2)N(Cc1ccco1)C1CCCC1` stands -6.25%; under `CCOc1cc(CN(C)CCCO)ccc1OC(F)F`, -6.49%.
As to `CCNC(=O)C1CCN(c2cc(CC)nc3ccnn23)C1` (stereo not drawn), the cytotoxicity at 70.5 h was 15.1%.
